Patent US7906334B2, “Method for reproducing conifers by somatic embryogenesis using lactose as a carbon source” (Cellfor Inc., priority 2003, dated 2011)

How the values were obtained:
[1] = system: loblolly pine lines LP1 and LP3; assay: Effect of galactose and galactose-containing sugars during proliferation and prematuration on SE yield; format: cell-based, Pinus taeda (loblolly pine); parameters: Amount of tissue at the end of the preculture II stage: unit not given here; details: for # SE/g FW / Amount of tissue at the end of the preculture II stage: 1% sucrose, 1.5% maltose, 1.5% lactose or 0.75% galactose
Method: The finding that loblolly pine cultures were capable of utilising galactose is unique. In order to further investigate these phenomenon two lines, LP1 and LP3, were cultured on semi-solid TX medium containing 1.0% lactose and 0.5% sucrose. Cultures were maintained by subculturing the embryogenic tissue every 10 to 14 days to fresh media. All cultures were incubated at 23° C. in the dark. Suspension cultures were initiated as described in Example 3, however, TX medium was supplemented with either 1% sucrose, 1.5% maltose, 1.5% lactose, or 0.75% galactose. These cultures were maintained in liquid media for 4 weeks by weekly transfers to fresh maintenance or prematuration media. After the 4˜week period, 1 ml of the liquid medium containing 0.1 g of tissue consisting of early stage somatic embryos was plated on each […] plates containing ½ LV maturation medium. This medium contained 120 μM ABA and 6.0% sucrose and 1% Phytagel. Eight to ten weeks later, mature somatic embryos were counted and treatments were evaluated based on the number of somatic embryos per gram fresh weight (Table 5).

[2] = system: radiata pine megagametophytes containing immature zygotic embryos; assay: Effect of carbon source on induction of radiata pine; format: cell-based, Pinus radiata (radiata pine)
Method: Female gametophytes containing immature zygotic embryos were used as explants. The cones were surface sterilised in 10% bleach solution for 15 min. They were rinsed 3 times with sterile water, air dried and stored in polyethylene bags at 4° C. until used. Seeds were sterilised in 3% hydrogen peroxide containing 0.1% Tween 20 and rinsed in sterile deionized water. Megagametophytes containing the immature embryos were plated on MSG (standard radiata pine medium containing sucrose, Table B) and on TX medium (Table A) supplemented with 2.2 mg/l 2,4-D, 1 mg/l BA and 0.3% Phytagel and containing 1.5% galactose and 0.5% sucrose. Casein hydrolysate was reduced to 1000 mg/l (TXR medium).
Cultures were maintained on the two media by subculturing the embryogenic tissue every 10 to 14 days to fresh media. All cultures were incubated at 23° C. in the dark. Suspension cultures were initiated as 2 g of tissue were introduced to 50 ml of TXR liquid medium containing 1.0% sucrose. […]
One ml of TXR medium containing 0.1 g tissue consisting of early stage somatic embryos was plated on modified ½ LV maturation medium (Table C) in which glutamine was reduced to 500 mg/l and casein hydrolysate to 1000 mg/l. […] Twelve to fourteen weeks later, mature somatic embryos were counted and treatments were evaluated based on the number of somatic embryos per gram fresh weight.

[3] = system: radiata pine lines RP1, RP2, RP3, and RP4; assay: Effect of carbon source on somatic embryo development of radiata pine in liquid cultures; format: cell-based, Pinus radiata (radiata pine); details: for # SE/g FW ± sd / Grams FW at the end of proliferation stage (from 1.5 g): 1.0% sucrose or 3.0% galactose in TXR prematuration media I and II; for tissue morphology: tissue induced and maintained on MSG sucrose or TXR galactose
Description: Tissue induced on MSG containing sucrose was further maintained on MSG sucrose medium, and tissue induced on TXR galactose was maintained on TXR medium containing galactose as described in Example 6. The tissue morphology of the lines induced on galactose was different from that induced on sucrose. […] The lines used in this study were RP1, RP2, RP3, and RP4.
Suspension cultures were initiated as described in Example 6. These cultures were maintained in liquid media for 20-28 days by transfers to fresh maintenance medium every 10 to 14 days. Up to five fold increase of the tissue was estimated at the end of each 10 to 14 day transfer.
In order to study the effect of galactose on embryo development after the proliferation stage, 2 g tissue was further transferred to 250 ml flasks, containing 50 ml of TXR prematuration medium I supplemented with either 1.0% sucrose or 3.0% galactose. As with loblolly pine cultures, prematuration I requires reduction of hormones either by reducing the auxin and cytokinin concentrations to optimally about 1/20 of the concentration of proliferation step, or by adding charcoal at about 0.01 to 1%, or a combination of both.
After the 10-14 day period, 1.5 g tissue was transferred to 250 ml flasks containing 50 ml TXR prematuration medium II to which either 1.0% sucrose or 3.0% galactose and 90 μM ABA were added.
Early stage somatic embryos were collected after 10 to 14 days and matured on modified ½ LV maturation medium as described in Example 6.

[4] = system: Douglas fir embryogenic tissue, cell line DF-2; assay: Effects of carbohydrates on liquid maintenance of Douglas fir embryogenic tissue; format: cell-based, Pseudotsuga menziesii (Douglas fir); details: 3 weeks suspension maintenance/bulking-up, 0.5% galactose, 1% lactose, 0.5% mannitol
Method: The culture medium for Douglas fir was TX medium (see Table A) with the following additives: glutamine 100 mg., Casein hydrolysate 100 mg., and pH 5.8. The following compounds were added into the basal medium for Douglas fir somatic embryo development at different stages: • 1) Induction medium: 18 μM 2,4-D and 9 μM BA, phytagel 0.28%, sucrose 1% • 2) Solid maintenance medium: 9 μM 2,4-D and 4.5 μM BA, phytagel 0.28%, sucrose 1%. • 3) Liquid maintenance and bulking-up medium: 9 μM 2,4-D and 4.5 μM BA, different carbon sources for experiments. • 4) Liquid pre-treatment medium: 20 (first week) or 30 μM ABA (second week), 10% PEG4000 (first week) or PEG1500 (second week), different carbon sources as described in examples below. • 5) Solid maturation media: TX (Table A) plus 0.02% NH4NO3 • Medium I. 40 μM ABA, 10% PEG 1500, maltose 2.5%, phytagel 0.6% • Medium II. 60 μM ABA, 10% PEG1500, maltose 2.5% and sucrose 1%, phytagel 0.8% • Medium III. 70 μM ABA, 6% PEG1500, sucrose 6%, phytagel 1%.
Embryogenic tissue was induced from immature zygotic embryos. The cones and seeds were surface-sterilised as described for pines, and embryos were dissected out from megagametophytes. The embryos, with the attachment of suspensors to their megagametophytes, were placed on the surface of induction medium. The culture was kept in darkness at 23° C. Embryogenic tissue was sub-cultured once every two weeks onto solid maintenance medium.
Embryogenic tissue of Douglas fir was collected from solid maintenance culture and one gram of tissue was transferred into a 200 ml flask containing 50 ml TX (see Table A) liquid maintenance medium. The liquid maintenance medium was supplied with different sugars (Table 8).
The tissue was drained, weighed and sub-cultured once per week. During a culture period of three weeks, the highest tissue growth was found in the culture with glucose as the major carbon source. The media containing sucrose, maltose and galactose also supported a fast tissue growth. With these latter sugars, tissue increased to 68 to 100 fold in three weeks. Tissue grew little in the media containing lactose or mannitol. […] Similar results were obtained within two cell lines, DF-7A and DF-2.

[5] = system: Douglas fir embryogenic tissue; assay: Medium osmolarity before and after one-week tissue inoculation; format: cell-based, Pseudotsuga menziesii (Douglas fir); details: medium with 0.5% galactose, 1% lactose, 0.5% mannitol or 0.5% glucose
Description: More change of medium osmolarity occurred during week 2 than week 1. The medium osmolarity changed little when lactose or mannitol was used in the media.

[6] = system: Suspension cultures of loblolly lines LP1, LP2, LP3, LP4 and LP5; assay: Effect of carbon source on liquid maintenance: growth rate and yield of somatic embryos; format: cell-based, Pinus taeda (loblolly pine); details: 1% sucrose; for # SE/g FW ± sd: 1.5% maltose or 1.5% lactose for 4 weeks in liquid, then 8-10 weeks on 1/2 LV maturation medium; for Average amount of tissue produced after 4 weeks in liquid (FW g): 1.5% maltose or 1.5% lactose in maintenance and prematuration I and II, started with 2 g
Method: Suspension cultures of loblolly lines LP1, LP2, LP3, LP4 and LP5 were started with 2 g of tissue introduced to 50 ml of TX liquid medium containing different sugars—1% sucrose, 1.5% maltose, or 1.5% lactose. These cultures were maintained in the same liquid media for 2 weeks by weekly transfers to fresh maintenance medium containing the above sugars. Then, 2 g of tissue produced in each maintenance medium was transferred to prematuration media I, containing the same carbon source as the maintenance media. After one week, 1.5 g of tissue from each prematuration medium I was transferred to prematuration media II containing the same sugars. After the 4 week period in liquid media, early stage somatic embryos were collected and plated on ½ LV maturation medium containing 120 μM ABA and 6.0% sucrose and 1% Phytagel. Eight to ten weeks later, mature somatic embryos were counted and treatments were evaluated based on the number of somatic embryos per gram fresh weight (SE/g FW). Table 2 summarises the tissue yield at the end of the 4-week period and the number of mature somatic embryos produced for each line.

[7] = system: loblolly pine embryogenic tissue; assay: Effect of carbon source on solid maintenance of loblolly pine; format: cell-based, Pinus taeda (loblolly pine); details: semi-solid TX medium; 1% sucrose, or 1.5% lactose and 0.025% glucose
Method: Tissue induced on sucrose from Example 1 was further maintained on the semi-solid TX medium containing 1% sucrose, and tissue induced on lactose was maintained on semi-solid TX medium containing 1.5% lactose and 0.025% glucose. The tissue morphology of the lines induced on lactose was different from the ones induced on sucrose. […] In order to further increase the proliferation rate, 0.5% sucrose was added to the TX 1.5% lactose-containing medium in place of 0.025% glucose. This medium provided a reasonable bulk-up rate, and growth of embryos was more synchronized than in the 1% sucrose medium.

[8] = additional glucose 0%, 0.5% glucose, 1% sucrose, 1% maltose

| Structure (SMILES) | # SE/g FW ([1]; line LP1) | Amount of tissue at the end of the preculture II stage ([1]; line LP1) | # SE/g FW ([1]; line LP3) | Amount of tissue at the end of the preculture II stage ([1]; line LP3) | Induction success, galactose compared with sucrose medium ([2]; galactose as carbon source) | subsequent yields of mature embryos, galactose compared with sucrose medium ([2]; tissues induced on galactose) | # SE/g FW ± sd [3] | Grams FW at the end of proliferation stage (from 1.5 g) [3] | Tissue growth increase ([3]; galactose as carbon source) | number of mature somatic embryos at the end of maturation ([3]; galactose as carbon source) | tissue morphology [3] | Tissue growth (fold, mean ± SD) [4, 8] | Tissue growth (fold, mean ± SD) ([4]; additional glucose 0.025%) | Osmolarity before inoculation (mmol/kg, mean ± SD) [5] | # SE/g FW ± sd [6] | Average amount of tissue produced after 4 weeks in liquid (FW g) [6] | tissue morphology [7] | embryos produced ([1]; line LP1, as stated in the text) | amount of tissue at the end of the 4 week-liquid period ([1]; line LP3, sucrose as sole carbon source) |
| --- | --- | --- | --- | --- | --- | --- | --- | --- | --- | --- | --- | --- | --- | --- | --- | --- | --- | --- | --- |
| O=C[C@H](O)[C@@H](O)[C@@H](O)[C@H](O)CO [Galactose] | 216 ± 8 SE/g FW | 59.45 | 172 ± 5 SE/g FW | 8.65 | greater than three times higher | almost double | 405.3 ± 10 SE/g FW | 9.5 ± 2 g | more than 5 times | doubled | more early stage immature embryos and a limited amount of suspensor type of surrounding tissue | 68.64 ± 4.58 fold | 97.02 ± 2.67 fold | 71.67 ± 1.15 mmol/kg | – | – | – | – | – |
| OC[C@H]1O[C@H](O[C@H]2[C@H](O)[C@@H](O)[C@H](O)O[C@@H]2CO)[C@H](O)[C@@H](O)[C@@H]1O [Maltose, maltose] | 106 ± 4 SE/g FW | 232.18 | 160 ± 5 SE/g FW | 118.22 | – | – | – | – | – | – | – | 85.01 ± 1.71 fold | – | – | 209 ± 28 SE/g FW | 204.45 g | – | – | – |
| OC[C@H]1O[C@@](CO)(O[C@H]2O[C@H](CO)[C@@H](O)[C@H](O)[C@H]2O)[C@@H](O)[C@@H]1O [Sucrose, sucrose] | 11 ± 3 SE/g FW | 121.22 | 100 ± 6 SE/g FW | 1278.18 | – | – | 213.3 ± 6 SE/g FW | 11.05 ± 2 g | – | – | predominantly suspensor type tissue and very few embryos | 100.94 ± 12.0 fold | – | – | 126 ± 20 SE/g FW | 592.06 g | Predominantly suspensor type tissue and very few embryos | 11 embryos | 1278.18 g |
| OC[C@@H](O)[C@@H](O)[C@H](O)[C@H](O)CO [mannitol, reference compound] | – | – | – | – | – | – | – | – | – | – | – | 1.60 ± 0.13 fold | 3.34 ± 0.22 fold | 76 ± 1 mmol/kg | – | – | – | – | – |
